*1 amine or outer side, *2 acyl side, *3 side chain or, on linkers, in order; H or OH if unused. Where a SMILES comes first, the peptide text is derived from it. Bridges are numbered along the chain shown (N, C = ends). CH2CH2 = C(C[*:2])[*:1]
Tests used:
[1] = test system: Shh-mediated Hedgehog pathway signaling in NIH3T3 cells; assay: Gli-reporter dual luciferase assay in Shh-N-stimulated NIH-3T3 cells; assay type: cell-based, mouse; details: 4 nM Shh-N, 24 hours; read-out: half-maximal inhibitory concentration (IC50), suppression of luminescence signal
From the text: The ability of the compounds provided herein to inhibit ligand-induced activation of the Hedgehog pathway in a cell can be assessed by means of a cell based assay. In an exemplary procedure, a suitable reporter plasmid is introduced in a Hedgehog responsive mammalian cell. Typically, the reporter plasmid contains a reporter gene encoding (e.g., a gene encoding for firefly luciferase) under a Gli-controlled promoter, thereby providing a reporter gene that is responsive to the activity of the Gli transcription factors. […] The reporter cells are incubated with the Hedgehog protein in the presence and in the absence of the cyclic peptide. The extent of Hedgehog pathway suppression can be determined based on relative activity of the luciferase reporter enzyme, which in turn can be determined by measuring the luminescence signal after addition of a luminogenic substrate of the luciferase enzyme.
To this end, we utilized a cell-based luciferase reporter assay, (Chen, Taipale et al. 2002) in which mouse embryo fibroblasts (NIH3T3) are transfected with vectors encoding for a Firefly luciferase (FF) gene under a Gli-controlled promoter and a Renilla luciferase (Ren) gene under a constitutive promoter. Hedgehog pathway suppression is measured based on the decrease in Firefly/Renilla luminescence ratio in the presence of the inhibitor. […] (Chen, Taipale et al. 2002)
Gli-reporter Assay. NIH-3T3 cells were passaged twice and then plated in 24-well culture dishes at 5×10^5 cells/well in DMEM containing 10% FBS and 1% penicillin/streptomycin. After 24 hours, the cells were transfected (TransIT-2020) with a mixture of a firefly luciferase reporter construct under the control of a Gli1 inducible promoter and a Renilla luciferase reporter construct under a constitutive promoter (40:1) (Cignal GLI Reporter Luciferase Kit, Qiagen). Cells were allowed to reach confluency, at which point the media was changed to Opti-MEM containing 1% FBS and added with 4 nM Shh-N(R&D Systems, Minneapolis, Minn.) in sterile PBS buffer. Synthetic HL2-lin and HL2-m5 were added at the same time at varying concentration (0.01-30 uM), and control cells were prepared by adding vehicle only (1% DMSO). Purmorphamine-treated cells were prepared by adding 5 μM purmorphamine to wells containing 10 μM HL2-m5. After growth for 24 hours at 37° C. in a humidified chamber, the cells were harvested and analyzed for Firefly and Renilla luciferase activity using a Tecan Spark-20 plate reader and a DLR kit (Promega) according to the manufacturer's instructions. Luminescence values were normalized to those of the Shh pathway activated control cells. Mean values and standard deviations were calculated from experiments performed at least in duplicate.

[2] = test system: Hedgehog pathway target genes Gli, Gi2 and Ptch1; assay: Gene transcription analyses by real-time PCR in Shh-N-stimulated NIH-3T3 cells; assay type: cell-based, mouse; details: HL2-m5 at 10 μM
Procedure: The ability of the compounds to suppress a transcriptional response associated with activation of the Hedgehog pathway can be assessed by incubating a Hedgehog responsive mammalian cell with the Hedgehog ligand in the presence and in the absence of the cyclic peptide inhibitor. The messenger RNA (mRNA) is extracted and a DNA the mRNA (cDNA) is produced via reverse transcription. The transcriptional level of canonical Hedgehog target genes such as Gli1 and Ptch1 is then determined via real-time PCR and/or via PCR followed by DNA gel electrophoresis. From the resulting dose-response curves, the activity of the cyclic peptide toward suppressing Hedgehog induced transcriptional activity can be established and quantitatively measured by means of IC50 values.
To further validate HL2-m5 as a Hedgehog pathway antagonist, the effect of this compound on the transcriptional activity of two canonical target genes of the pathway, Gi and Ptch1 (FIG. 1) was examined via real-time PCR. […]
Gene transcription analyses. […] The relative amounts of Gi, Gi2, and Ptch1 mRNA transcripts were determined by real-time PCR (Bio-Rad CFX thermocycler) using the primers listed in Table S1 and SYBR green TAQ reagent (Bio-Rad) according to the manufacture's protocol. […] Mean values and standard deviations were calculated from measurements performed in quadruplicate.

[3] = test system: NIH-3T3 cells; assay: Cell morphology, growth behavior and titer in the presence of the peptide; assay type: cell-based, mouse; details: highest concentration range applied
[4] = test system: GST-Shh, GST-Ihh, and GST-Dhh; assay: Hedgehog analog selectivity: relative binding at fixed peptide concentration; design: species or system human; details: peptide at fixed concentration of 0.5-1 μM, normalized to highest response
Procedure: FIG. 14. Hh analog selectivity for linear HHIP L2-derived peptide (HL2-pep) and representative cyclic peptide inhibitors. The data relative to the peptides were derived from direct binding experiments with immobilized Hedgehog proteins (i.e., GST-Shh, GST-Ihh, and GST-Dhh), biotinylated peptides (i.e., Biot-HL2-pep, Biot-HL2-m1, Biot-HL2-m2, Biot-HL2-m3, Biot-HL2-m4, Biot-HL2-m4), and HRP-conjugated streptavidin. The data relative to robotnikinin were derived from competition experiments ([…]+400 nM HL2-m5). For each compound, the response values were normalized to the highest binding response measured across the three Hedgehog analogs.
Hedgehog analog selectivity. KD values for FLAG-HL2-m5 binding to Ihh and Dhh were determined using the colorimetric immunoassay described earlier but using GST-Ihh and GST-Dhh-coated plates, respectively. The peptide relative binding affinity for the three isoforms of Hedgehog was determined using the same assay and peptide solutions at a fixed concentration of 0.5-1 μM. In this case, binding responses were subtracted against the blank (no peptide sample) and normalized to the highest value measured across the three Hh isoforms. Mean values and standard deviations were calculated from experiments performed at least in triplicate.

[5] = target: T1, GST-Shh (Homo sapiens, UniProt Q15465); assay: Competition assay: inhibition of FLAG-HL2-m5 binding to GST-Shh; details: 10 μM robotnikinin and 400 nM FLAG-HL2-m5; read-out: % inhibition of FLAG-HL2-m5 binding in the presence of GST-Shh
T1 construct: poly-histidine (N); made in house; host or cells: E. coli BL21(DE3), vector pET42b
Procedure: (§1) The immunoassay described above can be adapted to serve as a competition assay. In this case, a fixed amount of the labeled peptide is incubated with the immobilized Hedgehog protein in the presence of a test compound (e.g., another cyclic peptide or a small-molecule compound). The test molecule competes with the cyclic peptide for binding to the immobilized Hedgehog protein. The amount of bound peptide is quantified using the colorimetric assay described above and the extent of inhibition in the presence of the test compound is compared to that in the absence of it. From the resulting dose-response curves, a IC50 value for the test compound can be obtained. Using this assay and the cyclic compounds provided herein, the Hedgehog inhibitory activity of a test molecule can be evaluated. […]
(§2) While Shh is the most abundant isoform among Hedgehog proteins, paracrine/autocrine Hedgehog signaling in normal and cancer cells is also mediated by the Indian (Ihh) and Desert (Dhh) isoforms. […] Since the Hh isoform selectivity of robotnikinin had not previously investigated, this property was examined by means of a competition assay, whereby inhibition of FLAG-HL2-m5 binding to plate-immobilized GST-Shh, GST-Ihh, or GST-Dhh is measured via the HRP-conjugated anti-FLAG antibody.
(§3) Competition assay. […] Mean values and standard deviations were calculated from experiments performed in triplicate.

[6] = target: T2, GST-Ihh (Homo sapiens, UniProt Q14623); assay: Competition assay: inhibition of FLAG-HL2-m5 binding to GST-Ihh; details: 10 μM robotnikinin and 400 nM FLAG-HL2-m5
T2 construct: poly-histidine (N); made in house; host or cells: E. coli BL21(DE3), vector pET42b
Procedure: as §1, §2, §3

[7] = target: T3, GST-Dhh (Homo sapiens, UniProt O43323); assay: Competition assay: inhibition of FLAG-HL2-m5 binding to GST-Dhh; details: 10 μM robotnikinin and 400 nM FLAG-HL2-m5
T3 construct: poly-histidine (N); made in house; host or cells: E. coli BL21(DE3), vector pET42b
Procedure: as §1, §2, §3

[8] = test system: Hedgehog pathway activation in cells; details: similar cell-based assay; read-out: IC50, blocking Hedgehog pathway activation in cells; cited from earlier work

T2 sequence (Q14623 28-411): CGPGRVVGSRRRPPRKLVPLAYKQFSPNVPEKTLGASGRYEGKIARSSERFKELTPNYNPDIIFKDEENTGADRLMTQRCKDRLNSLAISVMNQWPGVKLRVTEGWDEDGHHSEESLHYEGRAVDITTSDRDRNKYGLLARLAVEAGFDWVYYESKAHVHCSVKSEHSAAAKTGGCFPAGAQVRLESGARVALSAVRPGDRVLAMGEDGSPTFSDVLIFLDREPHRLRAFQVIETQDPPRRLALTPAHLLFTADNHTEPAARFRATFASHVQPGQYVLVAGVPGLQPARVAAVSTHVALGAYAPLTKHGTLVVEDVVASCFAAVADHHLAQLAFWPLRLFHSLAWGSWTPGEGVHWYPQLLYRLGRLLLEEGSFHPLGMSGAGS
T1 sequence (Q15465 24-462): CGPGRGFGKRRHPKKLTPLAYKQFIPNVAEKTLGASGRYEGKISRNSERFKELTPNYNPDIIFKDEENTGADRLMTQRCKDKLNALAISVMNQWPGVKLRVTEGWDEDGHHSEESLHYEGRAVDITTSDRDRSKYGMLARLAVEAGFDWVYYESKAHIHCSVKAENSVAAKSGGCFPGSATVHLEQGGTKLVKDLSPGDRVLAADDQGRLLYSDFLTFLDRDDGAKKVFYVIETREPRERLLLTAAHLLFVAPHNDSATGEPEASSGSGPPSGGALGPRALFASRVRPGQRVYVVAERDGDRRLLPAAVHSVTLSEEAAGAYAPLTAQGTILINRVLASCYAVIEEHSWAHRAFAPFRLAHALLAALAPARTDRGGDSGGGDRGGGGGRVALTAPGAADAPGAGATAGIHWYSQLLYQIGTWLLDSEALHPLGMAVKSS

SMILES | IC50 [1] [µM] | mRNA level for the transcription factor Gli2 ([2]; ShhN-stimulated cells) | reduction of the mRNA levels of Gi and Ptch1 ([2]; relative to compound-untreated ShhN-stimulated cells) | cytotoxicity (cell morphology, growth behavior and titer) [3] | Hedgehog analog selectivity profile [4] | inhibition at 10 µM [5] [%] | affinity toward Ihh relative to Shh [6] | affinity toward Dhh relative to Shh [7] | IC50 [8] [µM]
CSCC[C@@H]1NC(=O)[C@H](C)NC(=O)[C@H](CCC(=O)O)NC(=O)[C@@H](NC(=O)[C@H](Cc2c[nH]c3ccccc23)NC(=O)[C@H](CO)NC(=O)[C@H](CC(C)C)NC(=O)[C@@H](NC(C)=O)[C@@H](C)O)Cc2ccc(cc2)OCCSC[C@@H](C(=O)N[C@H](C(=O)N[C@@H](CC(=O)O)C(N)=O)[C@@H](C)O)NC(=O)[C@H](CCSC)NC(=O)[C@H](CC(=O)O)NC1=O [HL2-m5] (Ac-TLSWYEAMDMCTD-NH2; linker 5-11 via CH2CH2) | 0.25 | suppresses | 75-85% | lack of cytotoxicity | nearly identical activity toward Shh and Ihh | – | – | – | –
O=C(C[C@@H]1C/C=C/CCC(=O)O[C@H](c2ccccc2)CNC1=O)NCc1ccc(Cl)cc1 [robotnikinin] | – | – | – | – | – | 34 | significantly lower affinity | significantly lower affinity | ~15

— patent publication US20210115087A1, “CYCLIC PEPTIDE INHIBITORS OF HEDGEHOG PROTEINS” (University of Rochester, priority 2016, published 2021)
